From patent US7763648B2, “Oxa-steroids derivatives as selective progesterone receptor modulators” (Janssen Pharmaceutica N.V., priority 2006, dated 2010)

Tests used:
[1] = test system: A549 Human lung carcinoma cells; experiment: A549 Human Lung Cell Assay (transfected, dexamethasone challenge, Luc-assay); assay type: cell-based; conditions: Dexamathasone challenge, 24 h
Description: A549 Human Lung Cell Assay
A549 Human lung carcinoma cells were grown in F-12K Nutrient Mixture containing 10% (v/v) fetal bovine serum (FBS; Invitrogen), 2 mM glutamine and 0.15% sodium dicarbonate (Invitrogen).
A549 cells were split 1 to 3 in 175 cm tissue culture flask. The cells were incubated at 37° C. in CO2 incubator until the cells were 95% confluent (typically 24-30 hours).
The following solutions were prepared in sterile tubes: (a) Solution A: 1.5 μg/ml of DNA in 8.5 ml OPTI-MEM I Reduced Serum Medium. (GIBCO cat# 31985) and (b) Solution B: 6 μl/ml of DMRIE-C Reagent into […] OPTI-MEM I. The two solutions were combined and mixed gently, then incubated at room temperature for 40 minutes.
The A549 cells prepared above were washed with […] of OPTI-MEM I. The medium was removed and 17 ml of the lipid-DNA complex solution was overlayed onto cells. The cells ere then incubated for 16 h at 37° C. in CO2 incubator. The DNA-containing medium was removed and 30 ml of growth medium was added. (5% Charcoal treated FBS) After 5-6 h, the cells were seeded in a 96 well plate and the cells incubated overnight at 37° C. in CO2 incubator.
To each well was then added 5 μl of test compounds and the cells incubated at 37° C. for 10 min. 5 μL of Dexamathasone (CAS [50-02-2]), was then added to each well for challenger and the cells incubated at 37° C. in CO2 incubator for 24 h. 100 μl of Luc-assay buffer was then added into each cell well and the cells incubated for 30 min at room temperature. A 150 μL sample from each well was then transferred into a DYNEX Microlitel plate and read on Top-counter.

[2] = test system: T47D human breast cancer cells; experiment: T47D Human Breast Cancer Cells Assay (alkaline phosphatase); assay type: cell-based; conditions: 24 h with test compound, luminescence
Description: T47D Human Breast Cancer Cells Assay
T47D human breast cancer cells were grown in RPMI medium without phenol red (Invitrogen) containing 10% (v/v) heat-inactivated fetal bovine serum (FBS; Hyclone), 1% (v/v) penicillin-streptomycin (Invitrogen), 1% (w/v) glutamine (Invitrogen), and […] insulin (Sigma). Incubation conditions were 37° C. in a humidified 5% (v/v) carbon dioxide environment.
The cells were plated in 96-well tissue culture plates at 10,000 cells per well in assay medium [RPMI medium without phenol red (Invitrogen) containing 5% (v/v) charcoal-treated FBS (Hyclone) and 1% (v/v) penicillin-streptomycin (Invitrogen)]. Two days later, the medium was decanted and test compound or control were added at a final concentration of 0.1% (v/v) dimethyl sulfoxide in fresh assay medium. Twenty-four hours later, an alkaline phosphatase assay was performed using a SEAP kit (BD Biosciences Clontech, Palo Alto, Calif.). Briefly, the medium was decanted and the cells were fixed for 30 minutes at room temperature with 5% (v/v) formalin (Sigma). The cells were washed once with room temperature Hank's buffered saline solution (Invitrogen). Equal volumes (0.05 mL) of 1× Dilution Buffer, Assay Buffer and 1:20 substrate/enhancer mixture were then added. After 1 hour incubation at room temperature in the dark, the lysate was transferred to a white 96-well plate (Dynex) and luminescence was read using a LuminoSkan Ascent (Thermo Electron, Woburn, Mass.).

SMILES	IC50 [1]	IC50 [2]
C#C[C@]1(O)CC[C@H]2[C@@H]3OCC4=CC(=O)CCC4=C3C(c3ccc(N(C)C)cc3)C[C@@]21C (stereo in doubt) [Compound 4, 11-(4-Dimethylamino-phenyl)-17-ethynyl-17-hydroxy-13-methyl-1,2,8,11,12,13,14,15,16,17-decahydro-6H-7-oxa-cyclopenta[a]phenanthren-3-one]	0.204 µM	0.019 µM
CN(C)c1ccc(C2C[C@@]3(C)[C@@H](CC[C@@]3(O)C#CC(C)(C)C)[C@@H]3OCC4=CC(=O)CCC4=C23)cc1 (stereo in doubt) [Compound 5, 11-(4-Dimethylamino-phenyl)-17-(3,3-dimethyl-but-1-ynyl)-17-hydroxy-13-methyl-1,2,8,11,12,13,14,15,16,17-decahydro-6H-7-oxa-cyclopenta[a]phenanthren-3-one]	0.167 µM	0.185 µM
CN(C)c1ccc(C2C[C@@]3(C)[C@@H](CC[C@@]3(O)C#CC(C)(C)O)[C@@H]3OCC4=CC(=O)CCC4=C23)cc1 (stereo in doubt) [Compound 6, 11-(4-Dimethylamino-phenyl)-17-hydroxy-17-(3-hydroxy-3-methyl-but-1-ynyl)-13-methyl-1,2,8,11,12,13,14,15,16,17-decahydro-6H-7-oxa-cyclopenta[a]phenanthren-3-one]	0.559 µM	> 1 µM
CN(C)c1ccc(C2C[C@@]3(C)[C@@H](CC[C@@]3(O)C#Cc3ccccn3)[C@@H]3OCC4=CC(=O)CCC4=C23)cc1 (stereo in doubt) [Compound 26, 11-(4-Dimethylamino-phenyl)-17-hydroxy-13-methyl-17-pyridin-2-ylethynyl-1,2,8,11,12,13,14,15,16,17-decahydro-6H-7-oxa-cyclopenta[a]phenanthren-3-one]	0.175 µM	0.034 µM
CN(C)c1ccc(C2C[C@@]3(C)[C@@H](CC[C@@]3(O)C#Cc3cccnc3)[C@@H]3OCC4=CC(=O)CCC4=C23)cc1 (stereo in doubt) [Compound 27, 11-(4-Dimethylamino-phenyl)-17-hydroxy-13-methyl-17-pyridin-3-ylethynyl-1,2,8,11,12,13,14,15,16,17-decahydro-6H-7-oxa-cyclopenta[a]phenanthren-3-one]	0.342 µM	0.021 µM
CN(C)c1ccc(C2C[C@@]3(C)[C@@H](CC[C@@]3(O)C#Cc3ccncc3)[C@@H]3OCC4=CC(=O)CCC4=C23)cc1 (stereo in doubt) [Compound 28, 11-(4-Dimethylamino-phenyl)-17-hydroxy-13-methyl-17-pyridin-4-ylethynyl-1,2,8,11,12,13,14,15,16,17-decahydro-6H-7-oxa-cyclopenta[a]phenanthren-3-one]	0.246 µM	0.039 µM
COCC#C[C@]1(O)CC[C@H]2[C@@H]3OCC4=CC(=O)CCC4=C3C(c3ccc(N(C)C)cc3)C[C@@]21C (stereo in doubt) [Compound 30, 11-(4-Dimethylamino-phenyl)-17-hydroxy-17-(3-methoxy-prop-1-ynyl)-13-methyl-1,2,8,11,12,13,14,15,16,17-decahydro-6H-7-oxa-cyclopenta[a]phenanthren-3-one]	0.315 µM	0.6 µM
CN(C)c1ccc([C@H]2C[C@@]3(C)[C@@H](CC[C@@]3(O)C#Cc3ccccc3)[C@@H]3OCC4=CC(=O)CCC4=C32)cc1 [Compound 3, 11-(4-Dimethylamino-phenyl)-17-hydroxy-13-methyl-17-phenylethynyl-1,2,8,11,12,13,14,15,16,17-decahydro-6H-7-oxa-cyclopenta[a]phenanthren-3-one]	0.304 µM	0.00138 µM
CN(C)c1ccc([C@H]2C[C@@]3(C)[C@@H](CC[C@@]3(O)C#Cc3ccc(C(F)(F)F)cc3)[C@@H]3OCC4=CC(=O)CCC4=C32)cc1 [Compound 9]	0.111 µM	0.000748 µM

Now those with a lower IC50 [1], led by results:

IC50 [1]	IC50 [2]	SMILES
0.0865 µM	0.00515 µM	CC#C[C@]1(O)CC[C@H]2[C@@H]3OCC4=CC(=O)CCC4=C3[C@@H](c3ccc(N(C)C)cc3)C[C@@]21C [Compound 1, 11-(4-Dimethylamino-phenyl)-17-hydroxy-13-methyl-17-prop-1-ynyl-1,2,8,11,12,13,14,15,16,17-decahydro-6H-7-oxa-cyclopenta[a]phenanthren-3-one]
0.0658 µM	0.0195 µM	CN(C)c1ccc(C2C[C@@]3(C)[C@@H](CC[C@@]3(O)C#Cc3ccc(C(C)(C)C)cc3)[C@@H]3OCC4=CC(=O)CCC4=C23)cc1 (stereo in doubt) [Compound 10, 17-(4-tert-Butyl-phenylethynyl)-11-(4-dimethylamino-phenyl)-17-hydroxy-13-methyl-1,2,8,11,12,13,14,15,16,17-decahydro-6H-7-oxa-cyclopenta[a]phenanthren-3-one]
0.0555 µM	0.0186 µM	CN(C)c1ccc(C2C[C@@]3(C)[C@@H](CC[C@@]3(O)C#CC(F)(F)F)[C@@H]3OCC4=CC(=O)CCC4=C23)cc1 (stereo in doubt) [Compound 13, 11-(4-Dimethylamino-phenyl)-17-hydroxy-13-methyl-17-trifluoroprop-1-ynyl-1,2,8,11,12,13,14,15,16,17-decahydro-6H-7-oxa-cyclopenta[a]phenanthren-3-one]
0.0435 µM	0.000613 µM	CN(C)c1ccc([C@H]2C[C@@]3(C)[C@@H](CC[C@@]3(O)C#Cc3ccc(Cl)cc3)[C@@H]3OCC4=CC(=O)CCC4=C32)cc1 [Compound 12, 17-(4-Chloro-phenylethynyl)-11-(4-dimethylamino-phenyl)-17-hydroxy-13-methyl-1,2,8,11,12,13,14,15,16,17-decahydro-6H-7-oxa-cyclopenta[a]phenanthren-3-one]
0.0413 µM	0.00367 µM	CN(C)c1ccc([C@H]2C[C@@]3(C)[C@@H](CC[C@@]3(O)C#Cc3ccc(C#N)cc3)[C@@H]3OCC4=CC(=O)CCC4=C32)cc1 [Compound 14, 4-[11-(4-Dimethylamino-phenyl)-17-hydroxy-13-methyl-3-oxo-1,2,3,6,8,11,12,13,14,15,16,17-dodecahydro-7-oxa-cyclopenta[a]phenanthren-17-ylethynyl]-benzonitrile]
0.0376 µM	0.000269 µM	CN(C)c1ccc([C@H]2C[C@@]3(C)[C@@H](CC[C@@]3(O)C#Cc3ccc(F)cc3)[C@@H]3OCC4=CC(=O)CCC4=C32)cc1 [Compound 8, 11-(4-Dimethylamino-phenyl)-17-(4-fluoro-phenylethynyl)-17-hydroxy-13-methyl-1,2,8,11,12,13,14,15,16,17-decahydro-6H-7-oxa-cyclopenta[a]phenanthren-3-one]
0.0334 µM	0.00955 µM	CN(C)c1ccc([C@H]2C[C@@]3(C)[C@@H](CC[C@@]3(O)C#CC3CC3)[C@@H]3OCC4=CC(=O)CCC4=C32)cc1 [Compound 2, 17-Cyclopropylethynyl-11-(4-dimethylamino-phenyl)-17-hydroxy-13-methyl-1,2,8,11,12,13,14,15,16,17-decahydro-6H-7-oxa-cyclopenta[a]phenanthren-3-one]
0.0313 µM	0.000943 µM	CN(C)c1ccc([C@H]2C[C@@]3(C)[C@@H](CC[C@@]3(O)C#Cc3ccc(Br)cc3)[C@@H]3OCC4=CC(=O)CCC4=C32)cc1 [Compound 11, 17-(4-Bromo-phenylethynyl)-11-(4-dimethylamino-phenyl)-17-hydroxy-13-methyl-1,2,8,11,12,13,14,15,16,17-decahydro-6H-7-oxa-cyclopenta[a]phenanthren-3-one]
0.0221 µM	0.0016 µM	Cc1ccc(C#C[C@]2(O)CC[C@H]3[C@@H]4OCC5=CC(=O)CCC5=C4[C@@H](c4ccc(N(C)C)cc4)C[C@@]32C)cc1 [Compound 7, 11-(4-Dimethylamino-phenyl)-17-hydroxy-13-methyl-17-p-tolylethynyl-1,2,8,11,12,13,14,15,16,17-decahydro-6H-7-oxa-cyclopenta[a]phenanthren-3-one]
